Data from PubChem BioAssay AID179 (DTP/NCI, 2004).
The source made the active and inactive calls.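 The calls were made as follows: active = compounds giving half or more protection of infected cells from virus-caused growth loss, again on retest; inactive = the rest.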

Tested on: CEM cells HIV-1 protection, formazan growth assay
Experiment: NCI AIDS Antiviral Assay
Settings: for IC50: measured here: growth of uninfected CEM cells
In short: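 Protection of CEM cells against HIV-1 measured as cell growth via soluble formazan read-out, with five concentrations tested on both infected and uninfected cells; failure to protect may reflect toxicity.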

Compound | EC50 | IC50 | outcome
CCOC(=O)c1nc2ccccc2nc1Nc1ccc(OC)c(OC)c1 | > 200 µM | > 200 µM | –
C/C(=N/NC(=O)C(N)=O)C(CC(C(=O)Nc1ccccc1C)/C(C)=N\NC(=O)C(N)=O)C(=O)Nc1ccccc1C (centres undefined) | > 158 µM | 79.4 µM | –
CC(C)CCCC(C)[C@H]1CC[C@@H]2[C@H]3CC[C@H]4C[C@@H](CCC=C(c5cc(Cl)c(OCc6ccc(C(=O)O)cc6)c(C(=O)O)c5)c5cc(Cl)c(OCc6ccc(C(=O)O)cc6)c(C(=O)O)c5)CC[C@]4(C)[C@@H]3CC[C@]12C (some centres undefined) | 4.17 µM | 112 µM | –
CC(=O)OCCOCn1c2ccccc2c2c3c(c4c5ccccc5n(COCCO)c4c21)C(=O)N(Cc1ccccc1)C3=O | – | – | inactive
CCOC(=O)C(/C=N\C(=S)Nc1ccc(OCC)cc1)=C(/O)c1ccccc1 | > 200 µM | > 200 µM | –
NCCCN1CCN(CCCNc2ccc3nnn4c5ccccc5c(=O)c2c34)CC1 | > 100 µM | 5.89 µM | –
CCn1c(=O)nc2n(-c3ccc(SC)cc3)c3ccccc3nc-2c1=O | – | – | inactive
CC1(C)OP(=O)(O)C=C1Sc1ccc([N+](=O)[O-])cc1[N+](=O)[O-] | > 200 µM | > 200 µM | –
N=C(N)SCc1ccc(Cl)cc1Cl (tested in a mixture with another compound) | > 100 µM | 60.3 µM | –
CC(NC(=O)C(=O)N/N=C1\CC(c2ccccc2)Sc2ccccc21)c1ccccc1 (centres undefined) | – | – | inactive
c1ccc(-c2nc3sccn3n2)cc1 | – | – | inactive
CCOC(=O)c1ccc(NC(=O)O/N=C(/Cl)C(C)C)cc1 | > 200 µM | 10.5 µM | –
Cc1cccc(N(C(=O)Nc2ccc(Cl)c(Cl)c2)C2=NCC(C)S2)c1 (centres undefined) | > 200 µM | > 200 µM | –
CCOC(=O)CSc1nc(-c2ccc(OC)cc2)c(C#N)c(=O)[nH]1 | > 200 µM | 97.7 µM | –
CN1NC(C2NN(C)C(=O)N(C)N2)NN(C)C1=O | > 977 µM | 33.1 µM | –
CSCCC(N)C(=O)NCCNc1ccc(NCCNC(=O)C(N)CCSC)c2c1C(=O)c1ccccc1C2=O (centres undefined) | > 151 µM | 0.219 µM | –
CCOC1(OCC)CC2C(=O)CCCC21OC(C)=O (centres undefined) | > 229 µM | 132 µM | –
O=C(Nc1ccc(S(=O)(=O)Nc2ccc(N=Nc3ccccc3)cc2)cc1)C(SC1=NC=NC2=NC=NC21)SC1=NC=NC2=NC=NC21 (centres undefined) | > 20 µM | 3.16 µM | –
CCOC(=O)C1(Cc2ccccc2)Cc2cc3c(cc2C1)CCC3 | > 200 µM | 33.9 µM | –
COC1=CC(=O)C(CO)=CC1=O | > 200 µM | 7.59 µM | –
Cc1ccc(C(=O)NC2C(=O)NC(C(C)C)C(=O)N3CCCC3C(=O)N(C)CC(=O)N(C)C(C(C)C)C(=O)OC2C)c2c1Oc1c(c(C(=O)NC3C(=O)NC(C(C)C)C(=O)N4CCCC4C(=O)N(C)CC(=O)N(C)C(C(C)C)C(=O)OC3C)c3nc(-c4ccccc4)c(=O)oc3c1C)N2 (centres undefined) | > 19.1 µM | 0.00794 µM | –
CCC[CH2][Sn]([CH2]CCC)([CH2]CCC)[CH2]N1CCC(=O)C[C@@H]1C/C=C/[P@]1(=O)O[C@H](c2ccccc2)C(C)N1C(C)C (some centres undefined) | – | – | inactive

Compound | EC50 | IC50 | outcome
CCCc1cc(=O)oc2c3c(cc(OC(C)C)c12)O[C@H](C)[C@H](C)[C@@H]3O | > 200 µM | 49 µM | –
COc1cc2c(c(OC)c1OC)C(=O)[C@H](O)[C@H]2NC(N)=O | > 200 µM | 105 µM | –
CSc1n[n+](C)cc(N)c1N | > 200 µM | 28.8 µM | –
O[C@@]1(C#Cc2ccc3c(c2)OCO3)CCC[C@H]1NCc1ccccc1 | > 200 µM | 36.3 µM | –
O=C(Cc1ccccc1)NN1C(=O)C(Cl)C1c1cccc([N+](=O)[O-])c1 (centres undefined) | > 14.5 µM | 8.71 µM | –
COC(=O)OC[C@H]1O[C@@H](n2cc(C)c(=O)[nH]c2=O)CC1OC(=O)OC (some centres undefined) | > 200 µM | > 200 µM | –
CC1(C)CC(/C=C2/OC(=O)c3ccccc32)=C(C#N)C(=O)O1 | > 33.9 µM | > 33.9 µM | –
NS(=O)(=O)c1ccc(NNC(=O)c2cccc3c(=O)c4ccccc4[nH]c23)cc1 | > 200 µM | 58.9 µM | –
CC1=NN(C(=O)CC(=O)Nc2ccc(C)cc2)C(=O)C1N=Nc1ccc(S(=O)(=O)c2ccc(N=NC3C(=O)N(C(=O)CC(=O)Nc4ccc(C)cc4)N=C3C)cc2)cc1 (centres undefined) | > 50.1 µM | > 50.1 µM | –
O=S(=O)(O)c1c(Cl)c(Cl)c(O)c2ncccc12 | > 200 µM | 1.17 µM | –
CC(C)C(=O)Nc1nc2nc[nH]c2c(=O)[nH]1 | > 85.1 µM | > 85.1 µM | –
CCOC(=O)c1cc2cc([N+](=O)[O-])ccc2oc1=O | > 105 µM | > 105 µM | –
CCC(C)N1CN(c2ccccc2)C2(CCN(CCCC3(c4ccc(F)cc4)OCCO3)CC2)C1=O (centres undefined) | > 200 µM | 6.92 µM | –
CCNC(CCCC(NCC)P(=O)(O)O)P(=O)(O)O (centres undefined) | – | – | inactive
COC(O)C(=O)c1c2c(cc3c1CC1(Cc4cc5c(cc4C1)CCC5)C3)CCC2 (centres undefined) | > 200 µM | 33.1 µM | –
O=C(/C=C/c1ccccc1)NC1C=Nc2ccc(Cl)cc2NC1=O (centres undefined) | > 200 µM | 25.7 µM | –
COC(=O)/C(=C/c1ccc(OC)cc1)C(C(=O)O)=C1CCCCC1 | > 398 µM | 5.62 µM | –
CCCc1ccc(OC2OC(COC(C)=O)C(OC(C)=O)C(OC(C)=O)C2OC(C)=O)cc1 (centres undefined) | > 95.5 µM | > 95.5 µM | –
CCN(CC)C(=O)CCN1CC1 | > 200 µM | > 200 µM | –
Nc1ccc2c(c1)CC1c3ccccc3C(C2)c2ccccc21 | – | – | inactive
Nc1nc(NCCCO)cc(=O)[nH]1 | > 200 µM | > 200 µM | –
